“Also recorded” adds a separate entry of the source.
Experiments:
KRAS G12C-SOS1 [1] = target: T1, KRAS G12C-SOS1 (Homo sapiens, UniProt Q07889); assay: Inhibitory effect on KRAS G12C-SOS1; type: biochemical; design: SOS1 catalytic domain likely; conditions: summary statement
T1 sequence (Q07889 1-1333): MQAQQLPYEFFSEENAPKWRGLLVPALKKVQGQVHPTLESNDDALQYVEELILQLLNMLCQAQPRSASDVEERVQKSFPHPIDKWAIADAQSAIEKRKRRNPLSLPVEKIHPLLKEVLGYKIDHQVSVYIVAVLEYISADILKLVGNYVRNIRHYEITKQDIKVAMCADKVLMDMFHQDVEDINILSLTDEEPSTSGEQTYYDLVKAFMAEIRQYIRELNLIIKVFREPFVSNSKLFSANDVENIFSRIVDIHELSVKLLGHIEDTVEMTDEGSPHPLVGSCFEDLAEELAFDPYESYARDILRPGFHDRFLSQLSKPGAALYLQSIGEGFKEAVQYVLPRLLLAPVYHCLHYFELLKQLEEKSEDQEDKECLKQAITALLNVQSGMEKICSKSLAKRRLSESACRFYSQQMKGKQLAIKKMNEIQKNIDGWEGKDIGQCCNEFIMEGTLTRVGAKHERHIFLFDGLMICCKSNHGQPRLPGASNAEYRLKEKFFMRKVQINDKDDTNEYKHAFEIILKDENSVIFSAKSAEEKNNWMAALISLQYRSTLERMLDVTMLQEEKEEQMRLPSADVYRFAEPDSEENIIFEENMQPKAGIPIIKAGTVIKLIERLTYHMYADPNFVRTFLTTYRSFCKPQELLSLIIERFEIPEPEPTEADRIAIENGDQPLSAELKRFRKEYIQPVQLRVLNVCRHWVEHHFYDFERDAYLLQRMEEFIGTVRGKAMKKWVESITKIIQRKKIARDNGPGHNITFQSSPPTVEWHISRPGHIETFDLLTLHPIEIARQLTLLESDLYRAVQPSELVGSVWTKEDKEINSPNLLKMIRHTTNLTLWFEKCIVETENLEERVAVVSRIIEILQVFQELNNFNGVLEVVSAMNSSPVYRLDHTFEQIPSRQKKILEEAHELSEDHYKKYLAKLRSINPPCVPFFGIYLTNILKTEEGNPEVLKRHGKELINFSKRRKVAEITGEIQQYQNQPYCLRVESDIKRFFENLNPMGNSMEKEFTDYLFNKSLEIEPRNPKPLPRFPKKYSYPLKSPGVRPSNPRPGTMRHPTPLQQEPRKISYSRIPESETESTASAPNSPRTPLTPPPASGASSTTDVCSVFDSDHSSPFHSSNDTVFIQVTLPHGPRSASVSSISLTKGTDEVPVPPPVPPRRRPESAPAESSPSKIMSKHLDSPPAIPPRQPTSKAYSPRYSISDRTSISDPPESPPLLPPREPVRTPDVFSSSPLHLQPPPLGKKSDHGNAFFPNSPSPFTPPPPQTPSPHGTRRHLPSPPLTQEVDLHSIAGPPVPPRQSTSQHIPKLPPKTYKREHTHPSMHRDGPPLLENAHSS

CYP3A4 = target: T2, CYP3A4 (Homo sapiens, UniProt P08684); assay: Inhibition of cytochrome P450 CYP3A4 (substrates midazolam and testosterone); type: in vitro ADME; conditions: role: inhibitor; summary statement
T2 construct: probe substrates midazolam and testosterone, ketoconazole control
Procedure: The inhibitory potential of compounds on cytochrome P450 (CYP450) subtype CYP3A4 (two substrates of midazolam and testosterone) was detected. First, the compound to be tested was prepared into a 10 mM stock solution in DMSO solvent, and the CYP3A4 inhibitor ketoconazole was prepared as 10 mM, 2.5 mM, and 2.5 mM stock solutions in DMSO solvent. The test compound and ketoconazole were diluted to 400-fold final concentration (compound: 10 μM, ketoconazole: 2.5 μM) with acetonitrile.
NADPH cofactor (10 mL of potassium phosphate buffer added with 66.7 mg NADPH) at 4-fold final concentration and substrates were prepared with potassium phosphate buffer (0.1 M, pH=7.4), with CYP3A4 substrate midazolam at a final concentration of 320 μM and CYP3A4 substrate testosterone at a final concentration of 20 μM.
A human liver microsome solution at a concentration of 0.2 mg/mL was prepared with potassium phosphate buffer on ice. A solution of the compound to be tested and a control inhibitor (control compound) solution at 2-fold final concentration were prepared with the human liver microsome solution on ice. The test wells were added with 30 mL of the test compound solution and the control inhibitor solution respectively, and then added with 15 mL of the substrate for duplication. […]

NCI-H1975 tumor = assay: In vivo efficacy on NCI-H1975 non-small cell lung cancer (in combination with osimertinib); design: species or system mice
Procedure: NCI-H1975 tumor cells were cultured in an incubator at 37 °C and 5% CO2 using medium containing inactivated RPMI 1640+10% FBS. After reaching a confluency rate of 80 to 90%, the cells were passaged by subculturing. After one week of adaptive feeding in mice, NCI-H1975 cells in logarithmic phase were inoculated subcutaneously into the right flank of mice at a concentration of 5×10^6/100 μL. Tumor growth was regularly monitored until the tumors reached an average volume of 100 to 150 mm^3. […] Tumor size and animal weight were measured and recorded before and during the administration process. The differences in tumor size between the model group and administration group were compared to determine the efficacy.

[2] = Human liver microsome stability; type: in vitro ADME
Procedure: The human liver microsome stability test was performed by incubating the compound and human liver microsomes in vitro. First, the compound to be tested was prepared into a 10 mM stock solution in DMSO solvent, and then the compound was diluted to 0.5 mM with acetonitrile. Human liver microsomes (Corning) were diluted with PBS into a microsome/buffer solution, and the solution was used to dilute 0.5 mM compound into a working solution, in which the concentration of the compound was 1.5 μM, and the concentration of human liver microsomes was 0.75 mg/mL. A deep-well plate was taken, 30 μL of the working solution was added per well, and then 15 μL of pre-heated 6 mM NADPH solution was added thereto to initiate a reaction, and the reaction was incubated at 37 °C At 0, 5, 15, 30, and 45 min of the incubation, 135 μL of acetonitrile was added to the corresponding wells to terminate the reaction. After the reaction was terminated with acetonitrile at the last time point of 45 min, the deep-well plate was vortexed for 10 min (600 rpm/min), and then centrifuged for 15 min. After centrifugation, the supernatant was collected, and added with purified water in a ratio of 1:1 to perform LC-MS/MS detection. A ratio of a peak area of compound to a peak area of internal standard at each time point was obtained, and the peak area ratios of the compound at 5, 15, 30, and 45 min were compared with the peak area ratio at 0 min to calculate the remaining percentage of the compound at each time point. T1/2 was calculated by using GraphPad 5 software.

KRAS G12C-SOS1 [3] = target: T1, KRAS G12C-SOS1; assay: Inhibition of KRAS G12C::SOS1 binding; conditions: summary statement
[4] = Mouse pharmacokinetic test, oral gavage; type: in vivo, male ICR mice; conditions: summary statement; listed as compound of the present disclosure
Procedure: Male ICR mice (20 to 25 g) were used, and fasted overnight. Three mice were taken and orally administered by gavage (10 mg/kg). Blood was collected before the administration, and at 15 min, 30 min, 1 h, 2 h, 4 h, 8 h, and 24 h after the administration. 6,800 g of the blood samples were centrifuged at 2 to 8 °C for 6 min, and plasma was collected and stored at −80 °C The plasma at each time point was taken and added with an acetonitrile solution containing internal standard in 3 to 5 times the amount, vortexed and mixed for 1 min, and centrifuged at 13,000 rpm/min at 4 °C for 10 min. The supernatant was collected, added with water in 3 times the amount, and mixed. An appropriate amount of the mixture was taken for LC-MS/MS analysis. The main pharmacokinetic parameters were analyzed using WinNonlin 7.0 software with non-compartmental model.

T2 sequence (P08684 whole entry): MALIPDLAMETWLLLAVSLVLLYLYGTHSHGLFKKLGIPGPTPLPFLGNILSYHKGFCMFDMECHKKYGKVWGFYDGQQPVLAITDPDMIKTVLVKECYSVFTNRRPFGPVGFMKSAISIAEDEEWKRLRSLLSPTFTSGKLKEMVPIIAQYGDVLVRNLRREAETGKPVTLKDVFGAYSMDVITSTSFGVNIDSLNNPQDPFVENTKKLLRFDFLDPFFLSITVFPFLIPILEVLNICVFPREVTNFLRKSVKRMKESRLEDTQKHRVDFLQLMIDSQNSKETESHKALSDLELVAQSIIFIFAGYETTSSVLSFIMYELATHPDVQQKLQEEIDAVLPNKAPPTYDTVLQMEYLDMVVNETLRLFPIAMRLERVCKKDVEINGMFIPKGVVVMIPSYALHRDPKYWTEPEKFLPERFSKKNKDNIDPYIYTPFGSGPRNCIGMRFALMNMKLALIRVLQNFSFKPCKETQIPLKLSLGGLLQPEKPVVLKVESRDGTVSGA

Cc1nc(N[C@H](C)c2cccc(S(F)(F)(F)(F)F)c2)c2cn(C3(CF)CC3)c(=O)cc2n1 [compound of formula I, (R)-6-(1-(fluoromethyl)cyclopropyl)-2-methyl-4-((1-(3-(pentafluorosulfanyl)phenyl)ethyl)amino)pyrido[4,3-d]pyrimidin-7(6H)-one]
inhibitory effect on KRAS G12C-SOS1 (KRAS G12C-SOS1 [1]): significant inhibitory effect
inhibitory effect on CYP3A4 enzymes (CYP3A4): no inhibitory effect
average tumor volume at the end of the treatment vs single-drug group of osimertinib (NCI-H1975 tumor; compound I-1 7.5 mg/kg BID or 25 mg/kg BID + osimertinib 1 mg/kg QD): significantly reduced, and the difference is statistically significant
synergistic effect of combined administration (NCI-H1975 tumor; compound I-1 25 mg/kg BID + osimertinib 1 mg/kg QD): synergistic effect
anti-tumor efficacy of combination with osimertinib vs single-drug administration (NCI-H1975 tumor; in combination with osimertinib): significantly better than that of single-drug administration
remaining at 0.5 h ([2]; human liver microsomes, 30 min, 37 °C, NADPH, read-out: Remaining percentage of compound after incubation for 30 min): 98.7%
hepatic metabolic stability ([2]; summary statement): good hepatic metabolic stability
metabolism in the human body ([2]; summary statement): slow metabolism in the human body
inhibitory effect on KRAS G12C::SOS1 binding (KRAS G12C-SOS1 [3]): significant inhibitory effect
pharmacokinetic properties / exposure [4]: high exposure; also recorded: excellent pharmacokinetic properties

— US20260337190A1, “CRYSTAL FORM OF PYRIDINOPYRIMIDINONE COMPOUND, ACID SALT THEREOF, CRYSTAL FORM OF ACID SALT THEREOF, AND USE” (Wuhan Humanwell Innovative Drug Research and Development …, priority 2022, published 2026)
